Laboratory results as given in US5089273A, “Ecteinascidins 729, 743, 745, 759A, 759B and 770” (priority 1990, dated 1992).
≈ marks a conversion by molar mass, not a printed value. Like-named read-outs stand apart in the source and are kept apart here.

Key:
CV-1 cells = experiment: Cytotoxic activity vs. CV-1 cells (disk zones of inhibition); format: cell-based; conditions: for zone of inhibition at 0.05 µg/disc / zone of inhibition at 0.1 µg/disc / zone of inhibition at 0.2 µg/disc / zone of inhibition at 0.4 µg/disc / zone of inhibition at 0.8 µg/disc / zone of inhibition at 1.6 µg/disc: Cercopithecidae, read-out: Zones of Inhibition
Procedure: (§1) The antimicrobial activities (vs. M. luteus) and the cytotoxic activities (vs. CV-1 cells) of the ecteinascidins and ecteinascidin 743 derivatives are shown in Table 1 and 2. […] All of the derivatives of ecteinascidin 743 that were prepared have antimicrobial and cytotoxic activities.

M. luteus = experiment: Antimicrobial activity vs. M. luteus (disk zones of inhibition); format: cell-based; conditions: for zone of inhibition at 0.2 µg/disc: 200 ng/6.35-mm disk; for times less potent than ecteinascidins 729 and 743: relative to ecteinascidins 729 and 743; for zone of inhibition at 0.1 µg/disc: 100 ng/6.35-mm disk
Procedure: as §1

Mycobacterium avium = experiment: Antimicrobial Spectrum, zones of inhibition; format: cell-based; conditions: 5 μg/disk, 6.35-mm disk
P388 leukemia = experiment: In vivo P388 mouse leukemia test
Excerpt: Compounds of this invention are also active in vivo against P388 leukemia in mice. The P388 mouse leukemia test is described in detail in a publication by G. L. Neil et al., Cancer Treatment Reports, 63: 1971-1978 (1979).

Pseudomonas aeruginosa = experiment: Antimicrobial Spectrum, zones of inhibition; format: cell-based; conditions: 5 μg/disk, 6.35-mm disk
Penicillium oxalicum = experiment: Antimicrobial Spectrum, zones of inhibition; format: cell-based; conditions: 5 μg/disk, 6.35-mm disk
Bacillus subtilis = experiment: Antimicrobial Spectrum, zones of inhibition; format: cell-based; conditions: 5 μg/disk, 6.35-mm disk
Saccharomyces cerevisiae = experiment: Antimicrobial Spectrum, zones of inhibition; format: cell-based; conditions: 5 μg/disk, 6.35-mm disk
Bacillus subtilis syn = experiment: Antimicrobial Spectrum, zones of inhibition; format: cell-based; conditions: 5 μg/disk, 6.35-mm disk
Sarcina lutea sens. = experiment: Antimicrobial Spectrum, zones of inhibition; format: cell-based; conditions: Micrococcus luteus; 5 μg/disk; 6.35-mm disk
bacteria = experiment: Antibacterial Activity (disk zone of inhibition, Example 4); format: cell-based
Excerpt: | Zone of inhibition (mm)

Escherichia coli = experiment: Antimicrobial Spectrum, zones of inhibition; format: cell-based; conditions: 5 μg/disk, 6.35-mm disk
[1] = test system: L1210 mouse leukemia cells; experiment: L1210 Tube Dilution Assay; format: cell-based
Excerpt: The L1210 tube dilution assay is described in detail in a publication by L. H. Li, et al., Cancer Research, 39:4816 (1979). ID50 and ID90 refer to the concentration of ecteinascidin needed to inhibit cell growth by […], respectively.

Klebsiella pneumoniae = experiment: Antimicrobial Spectrum, zones of inhibition; format: cell-based; conditions: 5 μg/disk, 6.35-mm disk
Staphylococcus aureus = experiment: Antimicrobial Spectrum, zones of inhibition; format: cell-based; conditions: 5 μg/disk, 6.35-mm disk
[2] = Micrococcus luteus, 400 ng/6.35-mm disk
[3] = Micrococcus luteus, 800 ng/6.35-mm disk
[4] = Micrococcus luteus, 1600 ng/6.35-mm disk

## COc1cc2c(cc1OC)[C@@]1(CS[C@@H]3c4c(OC(C)=O)c(C)c5c(c4[C@H](COC1=O)N1[C@@H]3[C@H]3c4c(cc(C)c(OC)c4O)C[C@@H]([C@@H]1O)N3C)OCO5)NCC2 [Mono- -- O-methyl, Mono-O-methylecteinascidin 743]
CV-1 cells
  zone of inhibition at 0.05 µg/disc: 13 mm
  zone of inhibition at 0.1 µg/disc: 22 mm
  zone of inhibition at 0.2 µg/disc: 20 mm
  zone of inhibition at 0.4 µg/disc: 23 mm
  zone of inhibition at 0.8 µg/disc: 25 mm
  zone of inhibition at 1.6 µg/disc: 26 mm
M. luteus; Micrococcus luteus
  zone of inhibition at 0.2 µg/disc: 8 mm
M. luteus; [2]
  zone of inhibition at 0.4 µg/disc: 11 mm
M. luteus; [3]
  zone of inhibition at 0.8 µg/disc: 14 mm
M. luteus; [4]
  zone of inhibition at 1.6 µg/disc: 14 mm

## COc1cc2c(cc1O)CCN[C@]21CS[C@@H]2c3c(OC(C)=O)c(C)c4c(c3[C@H](COC1=O)N1C[C@@H]3Cc5cc(C)c(OC)c(O)c5[C@H]([C@H]21)N3C)OCO4 [Ecteinascidin 745]
CV-1 cells
  cytotoxic activity (in words): greatly reduced activity
CV-1 cells; 800 ng/6.35-mm disk
  zone of inhibition at 0.8 µg/disc: 9 mm
CV-1 cells; 1600 ng/6.35-mm disk
  zone of inhibition at 1.6 µg/disc: 14 mm
Mycobacterium avium
  zone of inhibition at 5 µg/disc: 0 mm
P388 leukemia; 0.25 mg/kg, Example 6
  T/C: ca. 100
P388 leukemia; 0.25 mg/kg, Table 4
  T/C (%): 111%
P388 leukemia; mouse, in vivo
  antitumor activity (in words): greatly reduced activity
Pseudomonas aeruginosa
  zone of inhibition at 5 µg/disc: 0 mm
Penicillium oxalicum
  zone of inhibition at 5 µg/disc: 0 mm
Bacillus subtilis
  zone of inhibition at 5 µg/disc: 0 mm
Saccharomyces cerevisiae
  zone of inhibition at 5 µg/disc: 0 mm
Bacillus subtilis syn
  zone of inhibition at 5 µg/disc: 0 mm
Sarcina lutea sens.
  zone of inhibition at 5 µg/disc: 18 mm
M. luteus; dilutions accurate to within a factor of 2
  antimicrobial activity (in words): greatly reduced activity
M. luteus
  times less potent than ecteinascidins 729 and 743: ~32 times
bacteria; 20 μg/disk
  Zone of inhibition: trace
bacteria; 40 μg/disk
  zone of inhibition at 40 µg/disc: 7 mm
Escherichia coli
  zone of inhibition at 5 µg/disc: 0 mm
[1]; L1210, concentration needed to inhibit cell growth by 90 percent, in vitro, read-out: ID90 (the source's name)
  IC90: 0.19 µg/mL (≈ 0.255 µM)
[1]; L1210, read-out: ID50
  IC50: 0.088 µg/mL (≈ 0.118 µM)
Klebsiella pneumoniae
  zone of inhibition at 5 µg/disc: 0 mm
Staphylococcus aureus
  zone of inhibition at 5 µg/disc: 0 mm

## COc1cc2c(cc1O)CCN[C@]21C[S+]([O-])[C@@H]2c3c(OC(C)=O)c(C)c4c(c3[C@H](COC1=O)N1[C@H]2[C@H]2c3c(cc(C)c(OC)c3O)C[C@@H]([C@H]1O)N2C)OCO4 (some centres unmarked) [Ecteinascidin 759B]
CV-1 cells; 100 ng/6.35-mm disk
  Zones of Inhibition: 11 mm
CV-1 cells; 200 ng/6.35-mm disk
  Zones of Inhibition: 13 mm
CV-1 cells; 400 ng/6.35-mm disk
  Zones of Inhibition: 15 mm
CV-1 cells; 800 ng/6.35-mm disk
  Zones of Inhibition: 22 mm
CV-1 cells; 1600 ng/6.35-mm disk
  Zones of Inhibition: 22 mm
M. luteus; 400 ng/6.35-mm disk
  Zones of Inhibition: 10 mm
M. luteus; 800 ng/6.35-mm disk
  Zones of Inhibition: 13 mm
M. luteus; 1600 ng/6.35-mm disk
  Zones of Inhibition: 15 mm
M. luteus
  times less potent than ecteinascidins 729 and 743: four to eight times less potent
bacteria; 0.1 μg/disk
  Zone of inhibition: 9 mm
bacteria; 1 μg/disk
  Zone of inhibition: 15 mm

## COc1cc2c(cc1OC)[C@@]1(CS[C@@H]3c4c(OC(C)=O)c(C)c5c(c4[C@H](COC1=O)N1[C@@H]3[C@H]3c4c(cc(C)c(OC)c4OC)C[C@@H]([C@@H]1O)N3C)OCO5)NCC2 [Di- -- O-methyl, Di-O-methylecteinascidin 743]
CV-1 cells
  zone of inhibition at 0.05 µg/disc: 13 mm
  zone of inhibition at 0.1 µg/disc: 15 mm
  zone of inhibition at 0.2 µg/disc: 17 mm
  zone of inhibition at 0.4 µg/disc: 13 mm
  zone of inhibition at 0.8 µg/disc: 16 mm
  zone of inhibition at 1.6 µg/disc: 18 mm
M. luteus; [3]
  zone of inhibition at 0.8 µg/disc: 8 mm
M. luteus; [4]
  zone of inhibition at 1.6 µg/disc: 11 mm

## COc1cc2c(cc1O)CCN[C@]21CS[C@@H]2c3c(O)c(C)c4c(c3[C@H](COC1=O)N1[C@@H]2[C@H]2c3c(cc(C)c(OC)c3O)C[C@@H]([C@@H]1O)N2C)OCO4 [Deacetyl, Deacetylecteinascidin 743]
CV-1 cells; 400 ng/6.35-mm disk
  zone of inhibition at 0.4 µg/disc: 11 mm
CV-1 cells; 800 ng/6.35-mm disk
  zone of inhibition at 0.8 µg/disc: 15 mm
CV-1 cells; 1600 ng/6.35-mm disk
  zone of inhibition at 1.6 µg/disc: 16 mm
M. luteus; Micrococcus luteus
  zone of inhibition at 0.1 µg/disc: 8 mm
  zone of inhibition at 0.2 µg/disc: 10 mm
M. luteus; [2]
  zone of inhibition at 0.4 µg/disc: 12 mm
M. luteus; [3]
  zone of inhibition at 0.8 µg/disc: 14 mm
M. luteus; [4]
  zone of inhibition at 1.6 µg/disc: 16 mm

## COc1cc2c(cc1OC(C)=O)CCN[C@]21CS[C@@H]2c3c(OC(C)=O)c(C)c4c(c3[C@H](COC1=O)N1[C@@H]2[C@H]2c3c(cc(C)c(OC)c3O)C[C@@H]([C@@H]1O)N2C)OCO4 [Monoacetyl, Acetylecteinascidin 743]
CV-1 cells; 50 ng/6.35-mm disk
  zone of inhibition at 0.05 µg/disc: 18 mm
CV-1 cells; 100 ng/6.35-mm disk
  zone of inhibition at 0.1 µg/disc: 22 mm
CV-1 cells; 200 ng/6.35-mm disk
  zone of inhibition at 0.2 µg/disc: 22 mm
CV-1 cells; 400 ng/6.35-mm disk
  zone of inhibition at 0.4 µg/disc: 25 mm
CV-1 cells; 800 ng/6.35-mm disk
  zone of inhibition at 0.8 µg/disc: 28 mm
CV-1 cells; 1600 ng/6.35-mm disk
  zone of inhibition at 1.6 µg/disc: 30 mm
M. luteus; Micrococcus luteus, 50 ng/6.35-mm disk
  zone of inhibition at 0.05 µg/disc: 10 mm
M. luteus; Micrococcus luteus
  zone of inhibition at 0.1 µg/disc: 12 mm
  zone of inhibition at 0.2 µg/disc: 14 mm
M. luteus; [2]
  zone of inhibition at 0.4 µg/disc: 20 mm
M. luteus; [3]
  zone of inhibition at 0.8 µg/disc: 20 mm
M. luteus; [4]
  zone of inhibition at 1.6 µg/disc: 28 mm
M. luteus; relative to the original compound, antimicrobial and cytotoxic
  activity relative to ecteinascidin 743 (in words): enhanced activity over the original compound

## COc1cc2c(cc1OC(=O)c1ccc(Br)cc1)CCN[C@]21CS[C@@H]2c3c(OC(C)=O)c(C)c4c(c3[C@H](COC1=O)N1[C@@H]2[C@H]2c3c(cc(C)c(OC)c3O)C[C@@H]([C@@H]1O)N2C)OCO4 [p-Bromobenzoyl, p-Bromobenzoylecteinascidin 743]
CV-1 cells; 200 ng/6.35-mm disk
  zone of inhibition at 0.2 µg/disc: 10 mm
CV-1 cells; 400 ng/6.35-mm disk
  zone of inhibition at 0.4 µg/disc: 12 mm
CV-1 cells; 800 ng/6.35-mm disk
  zone of inhibition at 0.8 µg/disc: 16 mm
CV-1 cells; 1600 ng/6.35-mm disk
  zone of inhibition at 1.6 µg/disc: 18 mm
M. luteus; [2]
  zone of inhibition at 0.4 µg/disc: 8 mm
M. luteus; [3]
  zone of inhibition at 0.8 µg/disc: 10 mm
M. luteus; [4]
  zone of inhibition at 1.6 µg/disc: 12 mm

## COc1cc2c(cc1O)CCN[C@]21CS[C@@H]2c3c(OC(C)=O)c(C)c4c(c3[C@H](COC1=O)N1[C@@H]2[C@H]2c3c(cc(C)c(OC)c3O)C[C@@H]([C@@H]1C#N)N2C)OCO4 [Ecteinascidin 770]
CV-1 cells; 50 ng/6.35-mm disk
  zone of inhibition at 0.05 µg/disc: 10 mm
CV-1 cells; 100 ng/6.35-mm disk
  zone of inhibition at 0.1 µg/disc: 14 mm
CV-1 cells; 200 ng/6.35-mm disk
  zone of inhibition at 0.2 µg/disc: 16 mm
CV-1 cells; 400 ng/6.35-mm disk
  zone of inhibition at 0.4 µg/disc: 20 mm
CV-1 cells; 800 ng/6.35-mm disk
  zone of inhibition at 0.8 µg/disc: 24 mm
CV-1 cells; 1600 ng/6.35-mm disk
  zone of inhibition at 1.6 µg/disc: 25 mm
M. luteus; [2]
  zone of inhibition at 0.4 µg/disc: 9 mm
M. luteus; [3]
  zone of inhibition at 0.8 µg/disc: 12 mm
M. luteus; [4]
  zone of inhibition at 1.6 µg/disc: 15 mm
M. luteus
  times less potent than ecteinascidins 729 and 743: four to eight times less potent
bacteria; 0.1 μg/disk
  Zone of inhibition: trace
bacteria; 1 μg/disk
  zone of inhibition at 1 µg/disc: 14 mm

## Ecteinascidin 759A
CV-1 cells; 400 ng/6.35-mm disk
  Zones of Inhibition: 10 mm
CV-1 cells; 800 ng/6.35-mm disk
  Zones of Inhibition: 16 mm
CV-1 cells; 1600 ng/6.35-mm disk
  Zones of Inhibition: 16 mm
M. luteus; 800 ng/6.35-mm disk
  Zones of Inhibition: 8 mm
M. luteus; 1600 ng/6.35-mm disk
  Zones of Inhibition: 10 mm
M. luteus
  times less potent than ecteinascidins 729 and 743: four to eight times less potent
bacteria; 1 μg/disk
  Zone of inhibition: 9 mm
